Results as given in patent US20050256051A1, “Nuclear receptor-mediated introduction of a PNA into cell nuclei” (The Population Council, Inc., priority 2001, published 2005).

Columns and labels:
LNCaP cells [1] = test: Cell growth by total cell counts, LNCaP cells; format: cell-based, human; settings: 10 μM, 72 hours
Method: (§1) Two prostatic carcinoma derived cell lines were used (LNCaP and DU145 cultured in RPMI-1640, 10% charcoal-stripped fetal calf serum). Their features and culture conditions were as previously detailed (26, 27). PNA stock solutions (500 μM in H2O neutralized with NaOH) were added as an aliquot to the culture medium to their final concentration. […] In the gene regulation experiments, PNAmycwt, PNAmycwt-T, PNAmycmut-T, and PNAmycwt-NLS were present at a final 10 μM concentration in the culture medium, for 0, 24, 48, or 72 hours. Cell growth was measured by total cell counts from three replicate flasks (1.3-5.0×10^6 per each 75 cm^2/flask) while cell viability was determined by Trypan blue exclusion. The standard deviation was calculated both for cell growth and viability keeping into account the data from all the experiments (minimum of three each).
(§2) LNCaP and DU145 cells were treated with a 10 μM concentration of PNA constructs in the culture medium (PNA-mycwt-T (Δ), PNA-mycwt, PNA-mycmut, PNA-mycmut-T (●) as negative controls and PNA-mycwt-NLS (▪) as positive control). Cell numbers (FIGS. 3A and C) and viability (FIGS. 3B and D) were estimated, as described above, at increasing times of exposure to different PNA constructs.

DU145 cells [2] = test: Cell growth by total cell counts, DU145 cells; format: cell-based, human; settings: 10 μM, 72 h
Method: as §1, §2

LNCaP cells [3] = test: Cell viability by Trypan blue exclusion, LNCaP cells
Method: as §1, §2

DU145 cells [4] = test: Cell viability by Trypan blue exclusion, DU145 cells; format: cell-based, human; settings: 10 μM, up to 72 h, compared with the about 20% decline seen in LNCaP
Method: as §1, §2

c-myc gene [5] = test: MYC protein by Western blot normalized to H2b, LNCaP cells; format: cell-based, human; settings: for change in MYC: 2 μM, preliminary experiments
Method: (§3) Total cellular proteins samples were derived from 10^7 cells solubilized in 200 μl Urea lysis buffer (9M Urea, 50 mM Tris, pH 7.0) with brief sonication at 0° C. as needed. Western blot analysis for MYC expression was performed as described previously (29). Briefly, total cellular proteins were electrophoretically separated using 10% acrylamide, 0.4% (w/v) SDS gels and then transferred to a nitrocellulose membrane (Hybond C-extra, Amersham). The membrane was then cut at a […] molecular weight level (using as reference Kaleidoscope pre-stained standards, BioRad). Both membrane halves were incubated in parallel overnight with a primary antibody (top with anti-myc antibody, 9E10 Calbiochem, San Diego, Calif.; bottom with anti-H2b antibody kindly provided by Dr. M. Romani, IST, Genova, I). The membranes were washed and exposed to a rabbit anti-mouse IgG (Dakopatts, Glostrup, DK) at room temperature for 1 h. MYC and H2b bands were visualized by the incubation of the membrane with alkaline phosphatase-conjugated goat anti-rabbit IgG (Sigma) at room temperature for 2 h followed by exposure to the 5-bromo-4-chloro-3-indolylphosphate/nitro blue tetrazolium substrate developer (BCIP/NBT, Sigma).
(§4) The stained and reassembled Western blot images, from triplicate experiments, were digitally acquired, elaborated in Photoshop, and then quantified using Scion-Image. MYC concentrations were normalized to the matching histone H2b concentrations (a protein that remains constant throughout the treatment described). Therefore MYC concentration is reported as a ratio to an H2b standard. For Western blot analyses, the average error was 14.0% (range 8.3 to 25.1%) in the LNCaP experiments and for those with DU145 averaged 10.2% (range 8.5 to 20.3%).
As shown in Fugure 4A, the amount of MYC protein was evaluated by Western blot analysis of […]. The effects of PNAs on expression of the c-myc gene in LNCaP and DU145 cells were also obtained by immunochemical measurement of the MYC protein content of cell lysates, using data obtained from at least a triplicate run of each set of immunostained Western blots. In each case, the MYC content of the whole cell lysate was compared to that of histone H2b, a protein that remains constant throughout the treatment described. The constancy of H2b made it possible to represent variations in MYC protein concentration normalized to the H2b content in the same lysate.

c-myc gene [6] = test: MYC protein by Western blot normalized to H2b, DU145 cells; format: cell-based, human; settings: 10 μM
Method: as §3, §4
As shown in Fugure 4A, the amount of MYC protein was evaluated by Western blot analysis of total nuclear proteins. […]

Burkitt's lymphoma cells = settings: 10 μM in the cell medium; cited from earlier work
[7] = Solubility of PNA constructs in culture medium and stock solution; format: physicochemical; settings: cell culture medium (RPMI complete medium); higher concentrations precipitate; read-out: maximum solubility in RPMI complete medium
Method: Table 1 contains a description of the experimental PNAs used in this study, including their modifications and corresponding abbreviations. In particular, PNA-mycwt is a 17-mer PNA anti-gene for the unique sequence of c-myc, bases 4528-4544, in its II exon (21). […] All the other PNAs listed in Table 1 had solubilities in excess of 500 μM (stock solution described above), far above the 10 μM concentration used in most experiments.

PNA-mycwt-NLS: c-myc anti-gene PNA (SEQ ID NO:1) linked to SV40 Nuclear Localization Signal peptide PKKKRKV; positive control (TCAACGTTAGCTTCACC; all peptide nucleic acid (PNA); further chemistry not fully specified) [reference compound]
cell growth (LNCaP cells [1]): 34 % of control
inhibition of cell growth (DU145 cells [2]): 36%
decline in cell viability (LNCaP cells [3]; 10 µM): about 20%
effect on cell viability (DU145 cells [4]): same magnitude and timing
decrease in MYC content (c-myc gene [5]; 10 μM, 72 h, linear decrease): 52%
inhibition of MYC (c-myc gene [6]; 72 hours, linear inhibition): about 65%
cell viability (Burkitt's lymphoma cells): small decrease
inhibition of MYC expression (Burkitt's lymphoma cells): maximum inhibition

CCN(CC)c1ccc2c(-c3ccccc3C(=O)NCCCC[C@H](NC(=O)COCCOCCNC(=O)CN(CCNC(=O)CN(CCNC(=O)CN(CCNC(=O)CN(CCNC(=O)CN(CCNC(=O)CN(CCNC(=O)CN(CCNC(=O)CN(CCNC(=O)CN(CCNC(=O)CN(CCNC(=O)CN(CCNC(=O)CN(CCNC(=O)CN(CCNC(=O)CN(CCNC(=O)CN(CCNC(=O)CN(CCNC(=O)CN(CCNC(=O)COCCOCCNC(=O)CCC(=O)O[C@H]3CC[C@H]4[C@@H]5CC[C@H]6CC(=O)CC[C@]6(C)[C@H]5CC[C@]34C)C(=O)Cn3cc(C)c(=O)[nH]c3=O)C(=O)Cn3ccc(N)nc3=O)C(=O)Cn3cnc4c(N)ncnc43)C(=O)Cn3cnc4c(N)ncnc43)C(=O)Cn3ccc(N)nc3=O)C(=O)Cn3cnc4c(=O)[nH]c(N)nc43)C(=O)Cn3cc(C)c(=O)[nH]c3=O)C(=O)Cn3cc(C)c(=O)[nH]c3=O)C(=O)Cn3cnc4c(N)ncnc43)C(=O)Cn3cnc4c(=O)[nH]c(N)nc43)C(=O)Cn3ccc(N)nc3=O)C(=O)Cn3cc(C)c(=O)[nH]c3=O)C(=O)Cn3cc(C)c(=O)[nH]c3=O)C(=O)Cn3ccc(N)nc3=O)C(=O)Cn3cnc4c(N)ncnc43)C(=O)Cn3ccc(N)nc3=O)C(=O)Cn3ccc(N)nc3=O)C(=O)NCC(N)=O)c3ccc(=[N+](CC)CC)cc-3oc2c1 [PNA-mycwt-TR]
solubility [7]: 2 µM
change in MYC (c-myc gene [5]; 24 hours): −20%
change in MYC (c-myc gene [5]; 48 h): −30%
change in MYC (c-myc gene [5]; 72 h): −30%

CCN(CC)c1ccc2c(-c3ccccc3C(=O)NCCCC[C@H](NC(=O)COCCOCCNC(=O)CN(CCNC(=O)CN(CCNC(=O)CN(CCNC(=O)CN(CCNC(=O)CN(CCNC(=O)CN(CCNC(=O)CN(CCNC(=O)CN(CCNC(=O)CN(CCNC(=O)CN(CCNC(=O)CN(CCNC(=O)CN(CCNC(=O)CN(CCNC(=O)CN(CCNC(=O)CN(CCNC(=O)CN(CCNC(=O)CN(CCN)C(=O)Cn3cc(C)c(=O)[nH]c3=O)C(=O)Cn3ccc(N)nc3=O)C(=O)Cn3cnc4c(N)ncnc43)C(=O)Cn3cnc4c(N)ncnc43)C(=O)Cn3ccc(N)nc3=O)C(=O)Cn3cnc4c(=O)[nH]c(N)nc43)C(=O)Cn3cc(C)c(=O)[nH]c3=O)C(=O)Cn3cc(C)c(=O)[nH]c3=O)C(=O)Cn3cnc4c(N)ncnc43)C(=O)Cn3cnc4c(=O)[nH]c(N)nc43)C(=O)Cn3ccc(N)nc3=O)C(=O)Cn3cc(C)c(=O)[nH]c3=O)C(=O)Cn3cc(C)c(=O)[nH]c3=O)C(=O)Cn3ccc(N)nc3=O)C(=O)Cn3cnc4c(N)ncnc43)C(=O)Cn3ccc(N)nc3=O)C(=O)Cn3ccc(N)nc3=O)C(=O)NCC(N)=O)c3ccc(=[N+](CC)CC)cc-3oc2c1 [PNA-mycwt-R]
solubility [7]: 2 µM

PNA-mycwt-T: c-myc anti-gene PNA (SEQ ID NO:1) linked to dihydrotestosterone at N-terminal (TCAACGTTAGCTTCACC; all peptide nucleic acid (PNA); dihydrotestosterone conjugated at PNA N-terminus)
cell growth (LNCaP cells [1]): 34 % of control
decline in cell viability (LNCaP cells [3]; LNCaP cells, 10 μM, 72 h): about 20%
effect on MYC protein / expression (c-myc gene [5]; 10 μM): significant and persistent decrease
change in MYC content (c-myc gene [5]; 10 μM, 24 h): −63%
change in MYC content (c-myc gene [5]; 10 μM, 48 hours): −50%
change in MYC content (c-myc gene [5]; 10 μM, 72 hours): −42%
effect on MYC protein / expression (c-myc gene [6]): unaltered

PNA-mycwt: 17-mer c-myc anti-gene PNA, TCA ACG TTA GCT TCA CC (SEQ ID NO:1), vector-free (TCAACGTTAGCTTCACC; all peptide nucleic acid (PNA); further chemistry not fully specified)
effect on MYC protein / expression (c-myc gene [5]; 10 μM): unchanged
effect on MYC protein / expression (c-myc gene [6]): unaltered
